Results taken from patent publication US20120136057A1, “HYDROXY FATTY ACID COMPOUNDS AND USES THEREOF FOR DISEASE TREATMENT AND DIAGNOSIS” (PHENOMENOME DISCOVERIES INC., priority 2009, published 2012).

Legend:
Assay type in all cases: cell-based, mouse
[1] = tested on: TNFα; assay: TNFα protein by ELISA in LPS-stimulated RAW macrophage cells; conditions: RAW293 cells, 0.5 mM before LPS stimulation
Protocol: ELISA for mouse TNF alpha: Raw cells were treated as described in real time PCR. Conditioned medium was collected. Cells was briefly washed with ice cold PBS and lysed with lysis buffer (Jerry's recipe); Protein in the cell lysate was quantified using the Bio-Rad Protein Assay (Bio-Rad, Hercules, Calif.). 50 ul of conditioned medium or 100 ug of cell lysate per well was used to determine the amount of TNF alpha as per manufactory's instruction (Cat. No. KMC3011, Invitrogen).
(§1) The RAW293 mouse macrophage cell model system is commonly used to assess anti-inflammatory activity of compounds. The cells are treated with lipopolysaccharide which induces a massive inflammatory response, of which compounds can be tested for their ability to protect against. RAW293 cells were pretreated with hPULCFA-enriched extract followed by treatment with LPS for 24 hours after which mRNA transcript and protein levels of pro-inflammatory markers including the cytokines tumor necrosis factor alpha (TNFα) and interleukin-1 beta (IL-1β), iNOS as described above, cyclooxygenase 2 (COX2, the enzyme responsible for the production of pro-inflammatory eicosanoids from arachidonic acid) were assessed.

[2] = tested on: IL-1β; assay: IL-1β protein by ELISA in LPS-stimulated RAW macrophage cells; conditions: RAW293 cells, 0.5 mM before LPS stimulation
Protocol: ELISA for mouse IL-1 beta: Raw cells were treated as described in real time PCR. 50 ul of conditioned medium or 100 ug of cell lysate was used to determine the amount of IL-1 beta as per manufactory's instruction (Cat. No. MLB00B, Quantikine)
as §1

[3] = tested on: TNFα mRNA transcript; assay: TNFα mRNA by quantitative real-time PCR in LPS-stimulated RAW macrophage cells; conditions: RAW264.7 cells, 500 uM (0.5 mM) before LPS stimulation
Protocol: Quantitative Real time PCR: RAW264.7 cells were seeded at 1×10^6/well in […] plate the day before the treatment. The following day, the cells were treated with different concentration of hPUCLFA(D046) or 1% FA/DMSO (DMSO) as vehicle control for 4 hours; each treatment was in duplicate; then stimulated with LPS at 1 μg/ml (cat. No. L4391, Sigma) for 20 hours. Total RNA was isolated from cell pellets using Trizol (Cat. No. 15596-018, Invitrogen) as per manufacturer's instruction. The RNA pellets were resuspended in 50 μL of DEPC treated water and stored at −80° C. RNA concentration and purity was determined by spectrophotometry at 260 and 280 nm. […]
as §1, with “The cells are treated with lipopolysaccharide which induces a massive inflammatory response, of which compounds can be tested for their ability to protect against.” left out

Q: CCCC(O)C/C=C\C(O)/C=C\C/C=C\C/C=C\C/C=C\CCCCCCCCC(=O)O (stereo not drawn) [Compound D046-124] was tested. Which “TNFα protein level in conditioned media” value [1] did it give?
A: The value was “prevented the induction”.

Q: What about the “levels of IL-1β in conditioned media” value [2] of the same compound?
A: The value was “completely blocked”.

Q: What about the “induction of TNFα transcripts” value [3] of the same compound?
A: Its value is “prevented the induction”.
